In US6030951A, “Chrysomycin derivative compounds and use as antitumor agents” (Mercian Corporation, priority 1996, dated 2000):
In brackets after ≈: the same amount, converted by molar mass. Like-named read-outs stand apart in the source and are kept apart here.

Key:
[1] = system: MKN28 (gastric cancer cell); test: Inhibition of growth of human cancer cells (WST-1, 3 days); assay type: cell-based; settings: MKN-28, 72 h, read-out: IC50 value
Procedure: (§1) Using various human cancer cells, the concentrations of test compounds which inhibits the growth of cancer cells by 50% were determined. Specifically, each of K562 (leukemic cell), HT29 (colic cancer), HT1080 (reticulogranuloma cell), MCF7 (mammary cancer cell), PC6 (pulmonary cancer cell) and MKN28 (gastric cancer cell) was added to a 96-well microtiter/plate at a density of 2-5×10^3 cells per well, and RPM11640 medium (phenol red-free) containing 10% FBS, together with a test compound, was added thereto. Then, this plate was incubated at 37° C. for 3 days in an atmosphere of air containing 5% CO2. Thereafter, 10 μl of WST-1 reagent [0.065% 2-(4-iodophenyl)-3-(4-nitrophenyl)-5-(2,4-disulfonyl)-2H-tetrazolium monosodium salt, 0.007% 1-methoxy-5-methylphenazium methylsulfate] was added to each well, and the plate was further incubated for 3 hours. Then, the absorbance of each well at 450 nm (with a reference wavelength of 650 nm) was measured with a plate reader.

[2] = system: PC6 (pulmonary cancer cell); test: as above; assay type: cell-based; settings: 72 h, read-out: IC50 value
Procedure: as §1

K562 (leukemic cell) = test: as above; assay type: cell-based; settings: read-out: IC50 value
Procedure: as §1

HT29 (colic cancer) = test: as above; assay type: cell-based; settings: HT-29, 72 h, read-out: IC50 value
Procedure: as §1

[3] = system: MCF7 (mammary cancer cell); test: as above; assay type: cell-based; settings: read-out: IC50 value
Procedure: as §1

tumor cells = test: Growth-inhibiting activity against various types of tumor cells; assay type: cell-based, human; settings: as compared with chrysomycins
Procedure: as §1

solid cancer cells = test: Growth-inhibiting activity against cultured solid cancer cells; assay type: cell-based, human; settings: for effectiveness against cells derived from tumors, particularly solid cancers: colic, mammary, pulmonary and gastric cancer, mammals, in particular human
Procedure: as §1

[4] = organic solvents such as chloroform, acetone and methanol

| IC50 ([1]; MKN28, 3 days, 37° C.) [µg/mL] | IC50 ([2]; PC6, 3 days, 37° C.) [µg/mL] | IC50 (K562 (leukemic cell); 72 h, K562, 3 days, 37° C.) [µg/mL] | IC50 (HT29 (colic cancer); HT29, 3 days, 37° C.) [µg/mL] | IC50 ([3]; 72 h, MCF7, 3 days, 37° C.) [µg/mL] | Solubility (Solubility; [4]) | Solubility (Solubility; water) | Structure (SMILES) | IC50 [1] [µg/mL] | IC50 [2] [µg/mL] | IC50 (K562 (leukemic cell); K562, 72 h) [µg/mL] | IC50 (HT29 (colic cancer)) [µg/mL] | IC50 ([3]; MCF7, 72 h) [µg/mL] | growth-inhibiting activity against various types of tumor cells (tumor cells) | growth-inhibiting activity against all types of cultured solid cancers used for testing (solid cancer cells; all types tested) | effectiveness against cells derived from tumors, particularly solid cancers (solid cancer cells) |
| --- | --- | --- | --- | --- | --- | --- | --- | --- | --- | --- | --- | --- | --- | --- | --- |
| 11 (≈ 32.7 µM) | 34 (≈ 101 µM) | 8.1 (≈ 24.1 µM) | 19 (≈ 56.5 µM) | 17 (≈ 50.5 µM) | Soluble | insoluble | COc1cc2c(oc(=O)c3cc(C)cc(OC)c32)c2cccc(O)c12 [Mer-1020dE] | – | – | – | – | – | lower as compared with chrysomycins | – | – |
| 0.017 (≈ 0.0344 µM) | 0.064 (≈ 0.129 µM) | 0.36 (≈ 0.728 µM) | 0.075 (≈ 0.152 µM) | 0.032 (≈ 0.0647 µM) | Soluble | insoluble | COc1cc2c(oc(=O)c3cc(C)cc(OC)c32)c2c(C3OC(C)C(O)(C(C)=O)C3O)ccc(O)c12 (stereo not drawn) [Mer-1020dA] | – | – | – | – | – | – | significantly excellent growth-inhibiting activity | remarkable effectiveness |
| 0.35 (≈ 0.708 µM) | 0.11 (≈ 0.222 µM) | 0.28 (≈ 0.566 µM) | 0.35 (≈ 0.708 µM) | 0.35 (≈ 0.708 µM) | Soluble | insoluble | COc1cc2c(oc(=O)c3cc(C)cc(OC)c32)c2c(C3OC(C)C(=O)C(C)(O)C3O)ccc(O)c12 (stereo not drawn) [Mer-1020dB] | – | – | – | – | – | – | – | remarkable effectiveness |

The next lines start with the compound.

| Structure (SMILES) | IC50 ([1]; MKN28, 3 days, 37° C.) [µg/mL] | IC50 ([2]; PC6, 3 days, 37° C.) [µg/mL] | IC50 (K562 (leukemic cell); 72 h, K562, 3 days, 37° C.) [µg/mL] | IC50 (HT29 (colic cancer); HT29, 3 days, 37° C.) [µg/mL] | IC50 ([3]; 72 h, MCF7, 3 days, 37° C.) [µg/mL] | Solubility (Solubility; [4]) | Solubility (Solubility; water) | IC50 [1] [µg/mL] | IC50 [2] [µg/mL] | IC50 (K562 (leukemic cell); K562, 72 h) [µg/mL] | IC50 (HT29 (colic cancer)) [µg/mL] | IC50 ([3]; MCF7, 72 h) [µg/mL] | growth-inhibiting activity against various types of tumor cells (tumor cells) | growth-inhibiting activity against all types of cultured solid cancers used for testing (solid cancer cells; all types tested) | effectiveness against cells derived from tumors, particularly solid cancers (solid cancer cells) |
| --- | --- | --- | --- | --- | --- | --- | --- | --- | --- | --- | --- | --- | --- | --- | --- |
| COc1cc2c(oc(=O)c3cc(C)cc(OC)c32)c2c(C3OC(C)C(O)C(C)(O)C3O)ccc(O)c12 (stereo not drawn) [Chrysomycin B, reference compound] | 2.65 (≈ 5.34 µM) | 3.5 (≈ 7.05 µM) | 1.76 (≈ 3.54 µM) | 2.63 (≈ 5.3 µM) | 2.58 (≈ 5.2 µM) | – | – | – | – | – | – | – | – | – | – |
| C=Cc1cc(OC)c2c(c1)c(=O)oc1c2cc(OC)c2c(O)ccc(C3OC(C)C(O)C(C)(O)C3O)c21 (stereo not drawn) [Chrysomycin A, reference compound] | – | – | – | – | – | – | – | 0.144 (≈ 0.283 µM) | 0.335 (≈ 0.659 µM) | 0.106 (≈ 0.208 µM) | 0.84 (≈ 1.65 µM) | 0.53 (≈ 1.04 µM) | – | – | – |
| C=Cc1cc(OC)c2c(c1)c(=O)oc1c2cc(OC)c2c(O)ccc(C3OC(C)C(O)(C(C)=O)C3O)c21 (stereo not drawn) [Mer-1020dD] | 1 (≈ 1.97 µM) | 2.5 (≈ 4.94 µM) | 0.21 (≈ 0.415 µM) | 0.15 (≈ 0.296 µM) | 0.6 (≈ 1.18 µM) | Soluble | insoluble | – | – | – | – | – | – | – | remarkable effectiveness |
| C=Cc1cc(OC)c2c(c1)c(=O)oc1c2cc(OC)c2c(O)ccc(C3OC(C)C(=O)C(C)(O)C3O)c21 (stereo not drawn) [Mer-1020dC] | 0.32 (≈ 0.632 µM) | 0.03 (≈ 0.0592 µM) | 0.11 (≈ 0.217 µM) | 0.1 (≈ 0.197 µM) | 0.42 (≈ 0.829 µM) | Soluble | insoluble | – | – | – | – | – | – | – | remarkable effectiveness |
